# Results from patent US8030442B2, “Treatment of injury to the brain by inhibition of acid sensing ion channels” (priority 2004, dated 2011).
# Where two headings read alike, the source gives them in different places.
# Columns and labels:
# cortical neurons [1] = test: LDH release after 1 hr oxygen-glucose deprivation combined with acidosis; format: cell-based, mouse; details: n=8-11
# Experimental: To determine if activation of ASICs in ischemic conditions produced greater neuronal injury, neurons from P1 ASIC1^+/+ and ASIC1^−/− mice were subjected to 1 hr acid treatment under oxygen and glucose deprivation.
# (§1) Following anesthesia with halothane, cerebral cortices were dissected from PI ASIC1^+/+ and ASIC1^−/− mice and incubated with 0.05% trypsin-EDTA for 10 min at 37° C. Tissues were then triturated with fire-polished glass pipettes and plated on poly-L-ornithine-coated 24-well plates or 25×25 mm glass coverslips at a density of 2.5×10^5 cells per well or 10^6 cells per coverslip. Neurons were cultured with MEM supplemented with 10% horse serum (for E16 cultures) or Neurobasal medium supplemented with B27 (for P1 cultures) and used for electrophysiology and toxicity studies after 12 days. Glial growth was suppressed by addition of 5-fluoro-2-deoxyuridine and uridine, yielding cultured cells with ˜90% neurons as determined by NeuN and GFAP staining (data not shown).
# […]. Oxygen-glucose deprivation was terminated after 1 hr by replacing the glucose-free ECF with Neurobasal medium and incubating the cultures in a normal cell culture incubator.
# Aarts et al. (2003) have recently studied ischemia molded by prolonged oxygen-glucose deprivation (2 hr) but without acidosis. […]
# [2] = test system: cortical neurons cultured from ASIC+/+ and ASIC1-/- mice; test: LDH release in neurons cultured from ASIC+/+ and ASIC1-/- mice; format: cell-based, mouse; details: ASIC1-/- neurons, 1 hr 1 mM NMDA+10 μM glycine, Mg2+-free pH 7.4 ECF, n=4
# Experimental: as §1
# Cells were treated with either pH 7.4 or 6.0 ECF for 1 hr. LDH release was measured 24 hr after acid incubation. […] Background absorbance at 620 was subtracted.
# [3] = mouse, in vivo
# Experimental: We have, therefore, measured brain pH continuously with a fiber optic pH sensor in the ipsilateral and contralateral parietal cortex of mice immediately after the removal of the middle cerebral artery suture, to determine the degree, distribution, and the time course of acidosis following focal ischemia. Cerebral pH was evaluated in sham-operated animals, in vehicle-treated animals, in PcTX venom-treated animals, and in sodium bicarbonate treated animals. Values are mean±SE (n=3 for each group).
# (§2) Cerebral blood flow was monitored by transcranial laser doppler. All surgical procedures were performed under an operating stereomicroscope.
# For continuous measurement of pH in the brain, a fiber optic pH micro system (pHOptica, WPI) was used. This system has a pH range between 5 and 9, and the resolution is ±0.003 units. A glass-fiber with its pH-sensitive tip ([…]) was stereotaxically implanted into the brain immediately after the middle cerebral artery occlusion at the following coordinates from the bregma: 2.4 mm laterally, 0.1 posteriorly and 2.2 mm deep. pH was continuously measured for 6 h. The instrument was calibrated with standard solutions (pH 4.0, 5.0, 6.0, 7.0, 8.0, and 9.0) before and after the experiments. […] Changes in pH values were evaluated after PcTX and NaHCO3 intracerebroventricularly or intravenous administration 2 hours after occlusion.
# [4] = test system: transient focal ischemia (middle cerebral artery occlusion); details: mouse, in vivo; for percentage of the infarct: iv
# Experimental: Ischemia was induced by introducing a coated filament (6.0; Doccol) from the external carotid artery into the internal carotid artery and advancing it into the arterial Will's Circle, thereby occluding the middle cerebral artery (32). Rectal and temporalis muscle temperature was maintained at 37° C.±0.5° C. with a thermostatically controlled heating pad and lamp. Cerebral blood flow was monitored by transcranial laser doppler. All surgical procedures were performed under an operating stereomicroscope.
# [5] = test system: transient focal ischemia (middle cerebral artery occlusion); format: in vivo, mouse; details: for percentage of the infarct volume: vehicle 50.6±2.3
# Experimental: To investigate the potential interaction between NMDA and ASIC1a blockade on infarct volume, memantine was administered before or after PcTX administration in rodents subjected to 60 min of middle cerebral artery occlusion and evaluated one day after ischemia induction.
# as §2
# Rodents were treated with saline, PcTX and/or memantine according to the following schedule: Saline IP administered 30 min after middle cerebral artery occlusion; PcTX 15: (0.5 μL, 500 ng/mL) administered 15 min after middle cerebral artery occlusion; Memantine 30 (1 mL, 10 mg/kg) administered 30 min after middle cerebral artery occlusion; PcTx15 min/Memantine 30, 60 120; PcTX (0.5 μL, 500 ng/mL) administration 15 min after middle cerebral artery occlusion followed by IP Memantine (1 mL, 10 mg/kg) administration 30 min, 60 min, or 120 min after PcTX. Memantinel 5/PcTx 180, 300, 360: Memantine (1 mL, 10 mg/kg) administration IP 15 min after middle cerebral artery occlusion followed by intracerebraventricular PcTX (0.5 μL, 500 ng/mL) 180 min, 300 min, or 360 min after Memantine. N=5 animals per group.
# FIG. 18 is a graph presenting exemplary data from experiments measuring the percentage of brain infarct volume as a function of the time (in minutes) of administration of memantine after mid-cerebral artery occlusion, in accordance with aspects of the present teachings. Memantine's time window (1 mL, 10 mg/kg). Memantine (0.1 mL, 10 mg/kg) or saline solution (1 mL) was IP-administered 15 minutes, 1 h, or 3 h after ischemia induction. […] Each column represents the mean±SE of the percentage of the infarct compared to the ipsilateral hemisphere.
# [6] = test system: 60 min middle cerebral artery occlusion; test: Mouse 60 min middle cerebral artery occlusion, memantine with or without PcTX venom, infarct volume; format: in vivo; details: n=5
# cortical neurons [7] = format: cell-based, mouse; details: preincubation 1 μM, n=6
structure (smiles),measurement,setting,value
COC(=O)[C@@H](N)CCCNC(=N)N[N+](=O)[O-] [L-NAME],combined 1 hr oxygen-glucose deprivation/acidosis-induced neuronal injury,cortical neurons [1]; 300 μM,neither trolox (500 μM) nor L-NAME (300 μM) had significant effect
CN[C@H](CC(=O)O)C(=O)O [NMDA],"LDH release at 24 hr, % of maximal",[2],84.8%±1.4%
"O=C([O-])O.[Na+] [bicarbonate, sodium bicarbonate]",brain pH value after administration,[3],7.25±0.25
same,modifying brain pH,[3]; iv,less effective
same,relative infarct volume,[4],34.5±1.27%
same,percentage of the infarct,[4]; 2.5 mg/kg,61.51±5.03%
same,percentage of the infarct,[4]; 5 mg/kg,55.4±7.89%
CC12CC3CC(C)(C1)CC(N)(C3)C2 [memantine],percentage of the infarct volume,"[5]; 1 mg/kg 1 h after MCAO, n=5",55.4±5.2
same,percentage of the infarct volume,"[5]; 10 mg/kg 1 h after MCAO, n=5",41.0±3.4
same,percentage of the infarct volume,"[5]; 30 mg/kg 1 h after MCAO, n=5",43.4±3.8
same,survival of treated ischemic mice,"[5]; 100 mg/kg, n=5, all the mice",died
same,infarct volume,"[5]; memantine alone ip 1 h after MCAO (time window, FIG. 18), saline 50.6±2.3, n=5",40.3±4.3%
same,infarct volume,"[6]; ASIC1-/- mice, memantine ip",27.7±1.6 mm^3
same,infarct volume,"[6]; ASIC+/+ mice, 10 mg/kg ip, saline 101.4±9.4",61.6±12.7 mm^3
same,infarct volume,"[6]; memantine 10 mg/kg ip + aCSF icv, control 123.6±5.3",73.8±6.9 mm^3
C/C=C(/C)C(=O)O[C@H]1C(C)=C2[C@H]([C@@H]1OC(=O)CCCCCCC)[C@@](C)(OC(C)=O)C[C@H](OC(=O)CCC)[C@@]1(O)[C@H]2OC(=O)[C@@]1(C)O [thapsigargin],sustained component of acid-induced Ca2+ increase,cortical neurons [7],partially inhibited
Cc1c(C)c2c(c(C)c1O)CCC(C)(C(=O)O)O2 (centres unmarked) [trolox],combined 1 hr oxygen-glucose deprivation/acidosis-induced neuronal injury,cortical neurons [1]; 500 μM,neither trolox (500 μM) nor L-NAME (300 μM) had significant effect
